Experimental findings from patent US8598132B2, “Glycosylated indolocarbazoles, method for obtaining same and uses thereof” (Universidad de Oviedo, priority 2008, dated 2013) are described below.

Format in all cases: cell-based
The subject of one test is MDA-MB-231 (breast). As to the kind of experiment: SRB anti-tumour (growth inhibition) assay, MDA-MB-231. Particulars: Homo sapiens, 48 h exposure, read-out: GI50 (concentration inhibiting 50% of cell growth). Here is the method: (§1) The compounds generated were tested against a series of cell lines from tumours. It quantitatively determined the cell growth and the viability, using a colorimetric assay type, using the reaction with sulforhodamine B (SRB), according to the technique described by Faircloth et al. (Journal of Tissue and Culture Methods 1988, 11, 201-205).
(§2) 96-well microtitre plates are inoculated with cells (5×10^3 cells per well) in aliquots of 195 μl of medium, incubating them during 18 h, in a medium without added compound, to allow the cells to adhere to the surface. Next, the compounds to be tested are added, in samples of 5 μl, at a range of concentrations of 10 to 10^−8 μg/ml, dissolved in DMSO/EtOH (0.2% in PS buffer). After 48 h exposure, the anti-tumour effect is measured using the Sulforhodamine B (SRB) technique: the cells are fixed adding 50 μl of cold […] (50%) (w/v) and it is incubated for 60 min. at 4° C. The plates are washed with deionized water and dried. 100 μl of SRB solution (0.4% w/v in 1% acetic acid) to each well and it is incubated during 10 min. at ambient temperature. The non-bound SRB is eliminated, washing with 1% acetic acid. The plates are air dried and the bound colorant is dissolved with Tris buffer. The optical densities are read in an automatic plate spectrophotometer reader at a wavelength of 490 nm.
(§3) For the compounds of formula (III), (IV), (V), (VI), (VII), (VIII), (IX) and the compounds of formula (XII), (XIII), (XIV), (XV), (XVI) and (XVIII).

In the next test the test system is A549 (lung). As to the kind of experiment: SRB anti-tumour (growth inhibition) assay, A549. The following applies: Homo sapiens, 48 h exposure, read-out: GI50 (concentration inhibiting 50% of cell growth). On the procedure:
as §1, §2, §3

A further test relates to HT29 (colon). Put plainly: SRB anti-tumour (growth inhibition) assay, HT29. Particulars: Homo sapiens, HT-29, 48 h exposure, read-out: GI50 (concentration inhibiting 50% of cell growth). On the procedure: as §1, §2, §3

Structures are written as SMILES.

With `CN[C@@H]1C[C@H]2O[C@@](C)([C@@H]1OC)n1c3ccccc3c3c4c(c5c6ccccc6n2c5c31)C(=O)NC4` [STP, staurosporine, reference compound], the GI50 with MDA-MB-231 (breast) stood at 13 nM; with A549 (lung) it was 8 nM; in the test with HT29 (colon) it was 76 nM.
For `CO[C@H]1[C@H](O)[C@@H](O)[C@H](n2c3c(Cl)cccc3c3c4c(c5c6cccc(Cl)c6[nH]c5c32)C(=O)NC4=O)O[C@@H]1CO` [RBM, rebeccamycin, reference compound], the values for the GI50 in the test on A549 (lung) and in the test with HT29 (colon) were 760 nM and 1550 nM, respectively.
